According to EP2345639A1, “Cyclic hydroxylamine derivatives, their preparation and use as antioxidants” (ABIOGEN PHARMA S.p.A., priority 2009, dated 2011):
Where two headings read alike, the source gives them in different places.

What was measured:
[1] = test system: healthy animals; test: Effect of the compounds on healthy animals (same in vivo assay, cerebral oxidative parameters); design: species or system mice; conditions: for Average % variation with respect to the vehicle: 50 mg/kg IP for three consecutive days, mean over all parameters, D = doxorubicin alone
Experimental: (§1) 10 mice were used for each treatment group. For each compound 50 mg/kg were administered intraperitoneally (IP) for three consecutive days (day 0, 1 and 2); half the animals (5) also received IP 16.7 mg/kg of doxorubicin immediately after the first treatment (day 0). On the day after the last administration (day 3) the animals were killed by neck dislocation and the brains were removed, weighed and frozen in liquid nitrogen.
(§2) For the analyses of oxidative stress, 100 mg/ml of brain homogenate was prepared in HEB^(*) buffer (pH 7.4 EDTA/HEPES^(**)) containing a mixture of enzyme inhibitors (Leupeptin, Pepstatin, Aprotinin, BHA).
(§3) The evaluation parameters were: • BrW/BWi: ratio between final brain weight and initial body weight (day 0); • Prot. Hmg: total proteins in the homogenate (BCA method, i.e. bicinchoninic acid); • Prot. Ox: oxidized proteins in the Hmg by means of a colorimetric method using dinitrophenylhydrazone (DNPH); • GSH: reduced glutathione in the supernatant (sn) of the Hmg, obtained after precipitation with metaphosphoric acid (MPA), by means of a colorimetric method using dithiodinitrobenzene (DTNB); • CAT: catalase in the Hmg by a colorimetric method using potassium dichromate; • SOD: superoxide dismutase by a colorimetric method using SOD Reagent (xanthine, EDTA, nitroblue tetrazole, Na2CO3, BSA, i.e. bovine serum albumin); • GST: glutathione S-transferase in the supernatant by a colorimetric method using chlorodinitrobenzene (CDNB) and GSH; and • GPx: glutathione peroxidase in the supernatant after addition of GSH and t-BuOOH, heating and precipitation with MPA; followed by GSH method with DTNB. The assay was performed on the compounds (1)-(5) and (7)-(11) and on edaravone (E), as comparative compound.
The mean % effect, on all the parameters simultaneously, of the triple treatment in healthy animal, as mean percentage change relative to the vehicle. This value is useful as an approximate safety index of the oxidative state of the brain, i.e. the capacity of the compounds of the invention not to alter cerebral homeostasis in healthy animals.

[2] = test system: doxorubicin-induced cerebral oxidative stress in mice; test: In vivo assay of cerebral oxidative stress induced in mice by doxorubicin (model and oxidized animals); conditions: for inhibition in vivo at 50 mg/kg / change in vivo at 50 mg/kg: Mus musculus; for inhibition in vivo at 50 mg/kg: read-out: inhibition of the doxorubicin effect; for change in vivo at 50 mg/kg / mean % effect relative to doxorubicin alone, all parameters (Vehicle): oxidized mice; for mean % effect relative to doxorubicin alone, all parameters (Vehicle): computed as a function of the vehicle
Experimental: The assay was carried out on compounds (1)-(5) and (7)-(11) and on edaravone (E) as comparative compound.
as §1, §2, §3
The mean effect (n=5 experiments) of doxorubicin (D), i.e. "oxidized" animal, relative to the vehicle (V), the vehicle representing the healthy animal.
All the parameters, with the exclusion of Brain/BWi and Prot. Hmg, were normalized for total Hmg proteins. The D value standard deviations and the % incidence relative to V are given in italics.
The effect of the tested compounds on the "oxidized" animals was given as % inhibition relative to the percentage change due to doxorubicin alone. The effect of the compounds on the oxidized animals can be expressed both as a function of the values of the vehicle (healthy, vehicle only) and as a function of the value of its own (healthy, compound only): • Vehicle: percentage [(Compound+D)/V]x100/[(V+D)/V]x100 • Its own: percentage [(Compound+D)/Compound]x100/[(V+D)/V]x100
Again in this case, the mean % effect relative to doxorubicin alone could be given for all the parameters simultaneously, as an approximate index of effectiveness on the cerebral oxidative state of the animal.

[3] = TEAC method (Trolox Equivalent Antioxidant Capacity Assay); format: biochemical; conditions: ratio of gradient to gradient of Trolox; 650 nm, 37 °C, about 90 minutes
Excerpt: This assay is used to measure the total antioxidant activity of pure substances, biological fluids and plant compounds and is based on the reaction of antioxidants with the cation radical ABTS·^+ (2,2'-azinobis(3-ethylbenzothiazolin-6-sulphonate)). This cation radical is metastable and has to be generated just before the experiment by reacting ABTS with hydrogen peroxide in the presence of HRP. This radical can be reduced, with consequent loss of absorbance, by an antioxidant whose scavenging capacity can be measured spectrophotometrically at 650 nm. The test is carried out at 37 °C and the results are obtained from a comparison with Trolox (a synthetic antioxidant and hydrophilic analogue of vitamin E).
The ABTS solution S1 was prepared as follows: • 20 mg of ABTS were added to 50 mM of citric acid buffer (40 ml) at pH=4.5 and to the resulting solution there was added an aqueous solution of HRP (4.4 mg, 400 µl) and an aqueous solution of H2O2 (10 µl of a 30% solution diluted with 16.3 ml of water).
For each of the compounds (1)-(11), as synthesized above, there was prepared a 600 µM solution in water, methanol or DMSO according to its solubility, as well as a Trolox solution as reference.
Each solution was diluted to produce 6 solutions each at a concentration between 25 µM and 300 µM. From each of the diluted and divided solutions, there were withdrawn 20 µl to which 200 µl of solution S1 were then added.
The decrease in absorbance of each solution thus obtained was monitored at 650 nm until a stable value was reached (about 90 minutes).
For each set of 6 solutions and for the reference trolox solution, the absorption was given in graph form as a function of the amount of compound (nmol) in the solution. The gradient of the straight line obtained by linear interpolation was determined according to the least squares method. The TEAC value of each compound of the invention is given in the table below and is expressed as the ratio between the gradient of the resulting straight line and the gradient of the reference (trolox) straight line.

[4] = healthy mice, 50 mg/kg IP x3 days, percentage change relative to the vehicle
[5] = ip, overall, with respect to the vehicle
[6] = ip, % inhibition relative to change due to doxorubicin alone, vs its own, read-out: Brain/BWi its own
[7] = ip, % inhibition relative to change due to doxorubicin alone, vs its own, read-out: CAT/pr its own
[8] = ip, % inhibition relative to change due to doxorubicin alone, vs its own, read-out: GPX/pr its own
[9] = ip, % inhibition relative to change due to doxorubicin alone, vs its own, read-out: GSH/pr its own
[10] = ip, % inhibition relative to change due to doxorubicin alone, vs its own, read-out: GST/pr its own
[11] = ip, % inhibition relative to change due to doxorubicin alone, vs its own, read-out: Prot. Hmg its own
[12] = ip, % inhibition relative to change due to doxorubicin alone, vs its own, read-out: Prot. Ox/pr its own
[13] = ip, % inhibition relative to change due to doxorubicin alone, vs its own, read-out: SOD/pr its own
[14] = ip, % inhibition relative to change due to doxorubicin alone, vs vehicle, read-out: Brain/BWi vehicle
[15] = ip, % inhibition relative to change due to doxorubicin alone, vs vehicle, read-out: CAT/pr vehicle
[16] = ip, % inhibition relative to change due to doxorubicin alone, vs vehicle, read-out: GPX/pr vehicle
[17] = ip, % inhibition relative to change due to doxorubicin alone, vs vehicle, read-out: GSH/pr vehicle
[18] = ip, % inhibition relative to change due to doxorubicin alone, vs vehicle, read-out: GST/pr vehicle
[19] = ip, % inhibition relative to change due to doxorubicin alone, vs vehicle, read-out: Prot. Hmg vehicle
[20] = ip, % inhibition relative to change due to doxorubicin alone, vs vehicle, read-out: Prot. Ox/pr vehicle
[21] = ip, % inhibition relative to change due to doxorubicin alone, vs vehicle, read-out: SOD/pr vehicle
[22] = 50 mg/kg IP x3 days + doxorubicin, computed as a function of its own (healthy, compound only), read-out: mean % effect relative to doxorubicin alone, all parameters (Its own)
[23] = 50 mg/kg IP x3 days + doxorubicin

SMILES | Average % variation with respect to the vehicle ([1]; healthy mice, 50 mg/kg) | Prot. Hmg [1, 4] [%] | inhibition in vivo at 50 mg/kg [2, 5] [%] | change in vivo at 50 mg/kg [2, 6] [%] | change in vivo at 50 mg/kg [2, 7] [%] | change in vivo at 50 mg/kg [2, 8] [%] | change in vivo at 50 mg/kg [2, 9] [%] | change in vivo at 50 mg/kg [2, 10] [%] | change in vivo at 50 mg/kg [2, 11] [%] | change in vivo at 50 mg/kg [2, 12] [%] | change in vivo at 50 mg/kg [2, 13] [%] | change in vivo at 50 mg/kg [2, 14] [%] | change in vivo at 50 mg/kg [2, 15] [%] | change in vivo at 50 mg/kg [2, 16] [%] | change in vivo at 50 mg/kg [2, 17] [%] | change in vivo at 50 mg/kg [2, 18] [%] | change in vivo at 50 mg/kg [2, 19] [%] | change in vivo at 50 mg/kg [2, 20] [%] | change in vivo at 50 mg/kg [2, 21] [%] | change in vivo at 50 mg/kg [2, 22] [%] | also measured
CC1(C)CC(=O)C(C2CCCCN2O)C(=O)C1 (centres unmarked) [(3), 2-(1-hydroxypiperidin-2-yl)-5,5-dimethylcyclohexane-1,3-dione] | did not significantly alter the parameters | 2.5 | ≥ 50 | 7.2 | -87.1 | -108 | -11.2 | -50.5 | -125 | 195 | 30.8 | -53.6 | -23.5 | -91.9 | -49.6 | -110 | -114 | -45.9 | 86.7 | -76.6 | Average % variation with respect to the vehicle ([1]; healthy mice, listed as V+(3), 50 mg/kg): -0.2%; Brain/BWi [1, 4]: 1.4%; CAT/pr [1, 4]: -10.5%; GPX/pr [1, 4]: -1.8%; GSH/pr [1, 4]: 2.0%; GST/pr [1, 4]: 4.1%; Prot. Ox/pr [1, 4]: -8.6%; SOD/pr [1, 4]: -2.8%; inhibition of the doxorubicin effect ([2]; overall, compared with its own vehicle): at the level of edaravone; mean % effect relative to doxorubicin alone, all parameters (Vehicle) [2, 23]: -50.3%; TEAC [3]: 1.0
CC1(C)CC(=O)C(C2COCCN2O)C(=O)C1 (centres unmarked) [(4), 2-(4-hydroxymorpholin-3-yl)-5,5-dimethylcyclohexane-1,3-dione] | did not significantly alter the parameters | 1.9 | ≥ 50 | -26.1 | -102 | -105 | -77.6 | -147 | -106 | 19.2 | -68.5 | -18.8 | -94.7 | -83.8 | -34.4 | -120 | -80.7 | -4.1 | -28.7 | -84.1 | Average % variation with respect to the vehicle ([1]; healthy mice, listed as V+(4), 50 mg/kg): -2.1%; Brain/BWi ([1]; mouse, in vivo, ip, 50 mg/kg): -0.1%; CAT/pr ([1]; mouse, in vivo, ip, 50 mg/kg): -0.7%; GPX/pr ([1]; mouse, in vivo, ip, 50 mg/kg): -2.0%; GSH/pr ([1]; mouse, in vivo, ip, 50 mg/kg): -4.0%; GST/pr ([1]; mouse, in vivo, ip, 50 mg/kg): -5.2%; Prot. Ox/pr ([1]; mouse, in vivo, ip, 50 mg/kg): -3.0%; SOD/pr ([1]; mouse, in vivo, ip, 50 mg/kg): -5.8%; inhibition in vivo at 50 mg/kg ([2]; ip, overall, compared with its own vehicle): ~85%; mean % effect relative to doxorubicin alone, all parameters (Vehicle) [2, 23]: -58.1%; TEAC [3]: 1.2
